Read-outs that look alike come from different tables or passages of the source.
Key:
A1 adenosine receptors = target: T1, A1 adenosine receptors (Rattus norvegicus, UniProt P25099); assay: Inhibition of binding of [3H]N6-phenylisopropyladenosine to A1 adenosine receptors in rat cerebral cortical membranes; details: for fold less potent at A1-receptors: 6-thio analog versus oxygen analog (CPX or DPX, 24); for Ki (A2)/Ki (A1): ratio of A2 (rat striatum) to A1 (rat cortex) Ki; for A1 affinity/potency, in words: relative to the analogs named in the text
T1 construct: A1 adenosine receptors in rat cerebral cortical membranes; from tissue; host or cells: rat cerebral cortex membranes
T1 sequence (P25099 1-326): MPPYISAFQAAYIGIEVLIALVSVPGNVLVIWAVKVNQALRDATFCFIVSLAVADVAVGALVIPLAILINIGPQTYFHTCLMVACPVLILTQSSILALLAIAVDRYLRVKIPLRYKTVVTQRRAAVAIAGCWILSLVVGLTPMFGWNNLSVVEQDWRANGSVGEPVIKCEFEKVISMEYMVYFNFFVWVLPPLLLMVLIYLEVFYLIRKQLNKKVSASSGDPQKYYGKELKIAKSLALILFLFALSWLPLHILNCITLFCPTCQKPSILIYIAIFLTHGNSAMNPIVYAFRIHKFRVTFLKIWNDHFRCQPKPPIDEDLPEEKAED

A2 adenosine receptors [1] = target: T2, A2 adenosine receptors (Rattus norvegicus, UniProt P30543); assay: Inhibition of binding of [3H]N-ethylcarboxamidoadenosine to A2-adenosine receptors in rat striatal membranes; details: for A2 affinity/potency, in words: relative to the analogs named in the text
Description: Affinity at A1 - and A2 -adenosine receptors was measured in competitive binding assays, using as radioligands [^3 H]N^6 -phenylisopropyladenosine^17 (with rat cerebral cortical membranes) and [^3 H]5'-N-ethylcarboxamidoadenosine (with rat striatal membranes),^18 respectively.
N^6 -Cyclopentyladenosine was present at 50 nM to inhibit binding of the ligand at A1 -adenosine receptors. Inhibition of binding by a range of concentrations of xanthines was assessed in triplicate in at least three separate experiments. IC50 -values were converted to Ki-values by the method of Bruns et al,^18 using a conversion factor derived from the affinity of [^3 H]N-ethylcarboxamidoadenosine at A2 receptors and the Cheng-Prusoff equation.^19

A1 -adenosine receptors = details: background; cited from earlier work
A2 adenosine receptors [2] = target: T2, A2 adenosine receptors; parameters: A2 -adenosine receptors in rat striatal membranes; from tissue; host or cells: rat striatum membranes; details: values taken from Bruns et al. (ref 18); cited from earlier work
[3] = rat cortical membranes, [3H]PIA, single determination in triplicate or average of three ± S.E.M., read-out: Ki A1-receptors
[4] = read-out: Ki A2-receptors, rat striatal membranes, [3H]NECA, single determination in triplicate or average of three ± S.E.M.

T2 sequence (P30543 whole entry): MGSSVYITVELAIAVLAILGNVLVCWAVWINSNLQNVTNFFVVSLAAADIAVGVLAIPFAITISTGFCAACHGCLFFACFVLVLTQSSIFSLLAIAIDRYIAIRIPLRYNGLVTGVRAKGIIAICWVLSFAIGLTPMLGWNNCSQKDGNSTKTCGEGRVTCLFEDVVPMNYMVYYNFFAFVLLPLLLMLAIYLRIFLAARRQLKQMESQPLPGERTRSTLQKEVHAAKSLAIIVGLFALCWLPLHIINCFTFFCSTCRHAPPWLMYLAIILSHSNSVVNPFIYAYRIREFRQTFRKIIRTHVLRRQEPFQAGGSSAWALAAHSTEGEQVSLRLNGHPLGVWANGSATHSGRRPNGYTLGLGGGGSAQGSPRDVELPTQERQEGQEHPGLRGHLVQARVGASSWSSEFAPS

Row | SMILES | Ki (A1 adenosine receptors; [3]) [nM] | Ki (A2)/Ki (A1) (A1 adenosine receptors) | Ki (A2 adenosine receptors [1]) [nM] | other results
1 | CCn1c(=S)c2[nH]c(-c3ccccc3)nc2n(CC)c1=O [Compound 57] | 1010 | 3.47 | 3510 | fold less potent at A1-receptors (A1 adenosine receptors): 23 fold; fold less potent at A2-receptors (A2 adenosine receptors [1]; 6-thio analog 57 versus DPX, 24): 12 fold
2 | CCCn1c(=O)c2[nH]c(-c3ccc(OCC(=O)OCC)cc3)nc2n(CCC)c1=S [Compound 30] | 6.78 ± 0.64 | > 740 | > 5000 | –
3 | CCCn1c(=O)c2[nH]c(C3CCCC3)nc2n(CCC)c1=S [Compound 14] | 0.655 ± 0.058 | 479 | 314 ± 62 | A1-selectivity, in words (A1 adenosine receptors; A1 versus A2 binding, relative to oxygen analogs): a greater margin of A1 -selectivity; A1 affinity/potency, in words (A1 adenosine receptors): the A1 affinity was enhanced by the thio substitution
4 | Cn1c(=O)c2[nH]c(C3CCCC3)nc2n(C)c1=S [Compound 13] | 8 | 170 | 1390 | –
5 | Cn1c(=O)c2[nH]c(-c3cccs3)nc2n(C)c1=O [Compound 17] | 233 ± 48.6 | 6.97 | 1630 | –
6 | Cn1c(=O)c2nc(-c3cccs3)[nH]c2n(C)c1=S [Compound 21] | 221 ± 43.3 | 7.87 | – | Ki (A2 adenosine receptors [1]; [4]): 1740 nM
7 | CCCn1c(=O)c2[nH]c(-c3ccc(OCC(=O)NCCNC(=O)Cc4ccc(I)s4)cc3)nc2n(CCC)c1=O [Compound 48] | 11.3 ± 1.5 | 10.3 | 116 ± 25 | –
8 | Cn1c(=S)c2[nH]c(C3CCCC3)nc2n(C)c1=S [Compound 52] | 40.5 ± 6.6 | 285 | 11500 | –
9 | CCCn1c(=O)c2[nH]c(-c3ccc(OCC(=O)NCCN(C)C)cc3)nc2n(CCC)c1=S [Compound 35] | 2.55 ± 0.6 | 11 | 27.9 ± 7.5 | –
10 | CCCn1c(=S)c2[nH]c(C3CCCC3)nc2n(CCC)c1=O [Compound 55, 8-cyclopentyl-1,3-dipropyl-6-thioxanthine] | 15.5 ± 1.5 | 217 | 3360 | fold less potent at A1-receptors (A1 adenosine receptors): 17 fold
11 | CCCn1c(=O)c2[nH]c(-c3ccc(OCC(=O)NCCNC(=O)[C@H](N)CCCCN)cc3)nc2n(CCC)c1=S [Compound 43] | – | 3.6 | 46.8 ± 9.4 | –
12 | CCCn1c(=O)c2[nH]c(-c3ccc(OCC(=O)NCCN)cc3)nc2n(CCC)c1=O [Compound 3, 8-(4-(2-amino-ethylaminocarbonylmethyloxy)phenyl)-1,3-dipropylxanthine] | – | – | – | potency in binding at A1-adenosine receptors versus theophylline (A1 -adenosine receptors): more than four orders of magnitude more potent than theophylline
13 | CCCn1c(=O)c2[nH]c(-c3ccc(OCC(=O)N(C)CCN(C)C)cc3)nc2n(CCC)c1=S [Compound 37, (8-[2-Dimethylaminoethyl[N-methylamino[carbonyl[methyl[oxyphenyl]]]]]-2-thio-1,3-dipropylxanthine)] | 2.57 ± 0.67 | – | 24.5 ± 8.4 | –
14 | CCCn1c(=O)c2[nH]c(-c3ccc(OCC(=O)OCC)cc3)nc2n(CCC)c1=O [Compound 29] | 42 ± 3 | > 238 | > 10000 | –
15 | CCCn1c(=O)c2[nH]c(-c3ccc(OCC(=O)NCCN)cc3)nc2n(CCC)c1=S [Compound 31] | 2.69 ± 0.77 | 9.8 | 26.3 ± 1.76 | A1 affinity/potency, in words (A1 adenosine receptors): with less affinity at A1 -receptors than the corresponding oxygen analog; A2 affinity/potency, in words (A2 adenosine receptors [1]): enhanced over the oxygen analog
16 | CCCn1c(=S)c2[nH]c(C3CCCC3)nc2n(CCC)c1=S [Compound 53] | 4.87 ± 0.82 | 572 | 2780 | A1 affinity/potency, in words (A1 adenosine receptors): intermediate in potency between the corresponding 2-thio and 6-thio analogs; A2 affinity/potency, in words (A2 adenosine receptors [1]): intermediate in potency between the corresponding 2-thio and 6-thio analogs
17 | CCCn1c(=O)c2[nH]c(-c3cccs3)nc2n(CCC)c1=O [Compound 19] | 16.1 ± 1.96 | 23.6 | 381 ± 27.7 | –

Row | SMILES | Ki (A1 adenosine receptors; [3]) [nM] | Ki (A2)/Ki (A1) (A1 adenosine receptors) | Ki (A2 adenosine receptors [1]) [nM] | other results
18 | CCCn1c(=O)c2[nH]c(-c3ccc(OCC(=O)NCCNC(=O)[C@H](N)CCCCN)cc3)nc2n(CCC)c1=O [Compound 42] | 0.87 ± 0.09 | 210 | – | Ki (A2 adenosine receptors [1]; [4]): 180 nM
19 | CCCn1c(=O)c2nc(-c3ccc(OCC(=O)NCCNC(=O)CCCCCCC(=O)ON4C(=O)CCC4=O)cc3)[nH]c2n(CCC)c1=S [Compound 45, N-Succinimidyl 8-[2-[4-(6-Carboxy-n-hexyl)carbonylaminoethyl[amino[carbonyl[methyloxyphenyl]]]]]-1,3-dipropyl-2-thioxanthine] | – | – | – | Ki (A1 adenosine receptors): 33.5 nM
20 | Cn1c(=O)c2[nH]c(-c3ccco3)nc2n(C)c1=O [Compound 15, reference compound] | – | 7.94 | – | Ki (A2 adenosine receptors [2]): 2780 nM
21 | CCCn1c(=O)c2[nH]c(-c3ccc(OCC(=O)O)cc3)nc2n(CCC)c1=S [Compound 28, 8-(4-(carboxymethyloxy)phenyl)-1,3-dipropyl-2-thioxanthine] | 53.8 ± 7.1 | 5.86 | 315 ± 60.8 | enhancement of potency at A2-receptors by the 2-thio substitution (A2 adenosine receptors [1]; 28 versus oxygen analog 27): 7 fold
22 | Cn1c(=S)c2[nH]c(-c3ccccc3)nc2n(C)c1=O [Compound 56] | 1380 | 8.18 | 11300 | –
23 | CCCn1c(=O)c2[nH]c(-c3ccc(OCC(=O)NCCNC(=O)[C@@H](CCCCNC(=O)OCc4ccccc4)NC(=O)OC(C)(C)C)cc3)nc2n(CCC)c1=S [Compound 39] | – | 10 | 870 | –
24 | CCCn1c(=O)c2[nH]c(-c3ccc(OCC(=O)NCCNC(=O)[C@H](N)CCCCNC(=O)OCc4ccccc4)cc3)nc2n(CCC)c1=O [Compound 40] | – | 30 | 191 ± 13 | –
25 | CCCn1c(=O)c2[nH]c(-c3ccsc3)nc2n(CCC)c1=O [Compound 20] | 10 ± 0.03 | 12.1 | 121 ± 18.2 | A2 affinity/potency, in words (A2 adenosine receptors [1]): Preference for 3-thienyl derivatives was evident particularly at the A2 -subtype
26 | Cn1c(=O)c2[nH]c(-c3ccsc3)nc2n(C)c1=O [Compound 18] | 152 ± 27 | 5.53 | 841 ± 109 | A2 affinity/potency, in words (A2 adenosine receptors [1]): Preference for 3-thienyl derivatives was evident particularly at the A2 -subtype
27 | CCCn1c(=O)c2[nH]c(-c3ccc(OCC(=O)NCCNC(=O)CCCCCCC(=O)NCc4cccs4)cc3)nc2n(CCC)c1=O [Compound 49] | 7.44 ± 0.98 | 85 | – | Ki (A2 adenosine receptors [1]; [4]): 630 ± 160 nM
28 | CCCn1c(=O)c2[nH]c(-c3ccc(OCC(=O)NCCN(C)C)cc3)nc2n(CCC)c1=O [Compound 34] | – | 1.8 | 5.03 ± 0.54 | –
29 | CCCn1c(=O)c2[nH]c(-c3ccc(OCC(=O)NCCNC(=O)[C@H](N)CCCCNC(=O)OCc4ccccc4)cc3)nc2n(CCC)c1=S [Compound 41] | – | 36 | 322 ± 17 | –
30 | Cn1c(=O)c2nc(-c3ccoc3)[nH]c2n(C)c1=O [Compound 16, reference compound] | – | 13.6 | – | Ki (A2 adenosine receptors [2]): 984 ± 70 nM
31 | CCCn1c(=O)c2[nH]c(-c3ccc(OCC(=O)NCCNC(=O)Cc4cccs4)cc3)nc2n(CCC)c1=O [Compound 46] | 18.3 ± 3 | 8.1 | 147 ± 5 | –
32 | CCCn1c(=O)c2[nH]c(-c3ccc(OCC(=O)NCCNC)cc3)nc2n(CCC)c1=S [Compound 33] | 2.4 ± 0.28 | – | – | –
33 | Cn1c(=S)c2[nH]c(C3CCCC3)nc2n(C)c1=O [Compound 54] | 202 ± 26 | 44.4 | 8980 | –
34 | CCCn1c(=O)c2[nH]c(-c3ccc(OCC(=O)O)cc3)nc2n(CCC)c1=O [Compound 27] | 58 ± 3 | 37.8 | – | Ki (A2 adenosine receptors [1]; [4]): 2200 nM

— US5453426A, “Sulfur-containing xanthine derivatives as adenosine antagonists” (priority 1994, dated 1995)
